Inconclusive results and toxic doses are left out. Cut-off read from the data, not from the text of the source: active = T/C of 150% or more; inactive = T/C below 125%.
Tested on: L1210 leukemia ip in BDF1 mice, survival T/C
Test: NCI In Vivo Anticancer Drug Screen. Data for tumor model L1210 Leukemia (intraperitoneal) in B6D2F1 (BDF1) mice
Settings: endpoint: mean survival time, higher = longer survival
Method in brief: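 Antitumor effect is assessed in tumor-bearing animals. Survival in the compound arm is compared with a vehicle-dosed control arm and expressed as their quotient.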

[1] = dose: 50.0 mg/kg/injection, schedule: Q01DX009 (ip), vehicle: saline
[2] = dose: 100.0 mg/kg/injection, schedule: Q01DX001 (ip), vehicle: saline
[3] = dose: 100.0 mg/kg/injection, schedule: Q01DX009 (ip), vehicle: saline
[4] = dose: 100.0 mg/kg/injection, schedule: Q04DX003 (ip), vehicle: saline
[5] = dose: 200.0 mg/kg/injection, schedule: Q01DX001 (ip), vehicle: saline
[6] = dose: 200.0 mg/kg/injection, schedule: Q01DX009 (ip), vehicle: saline
[7] = dose: 200.0 mg/kg/injection, schedule: Q04DX003 (ip), vehicle: saline
[8] = dose: 400.0 mg/kg/injection, schedule: Q01DX001 (ip), vehicle: saline
[9] = dose: 400.0 mg/kg/injection, schedule: Q04DX003 (ip), vehicle: saline
[10] = dose: 100.0 mg/kg/injection, schedule: Q04DX003 (ip), vehicle: Klucel (hydroxypropylcellulose) (HPC)
[11] = dose: 200.0 mg/kg/injection, schedule: Q04DX003 (ip), vehicle: Klucel (hydroxypropylcellulose) (HPC)
[12] = dose: 400.0 mg/kg/injection, schedule: Q04DX003 (ip), vehicle: Klucel (hydroxypropylcellulose) (HPC)
[13] = dose: 100.0 mg/kg/injection, schedule: Q01DX009 (ip), vehicle: Klucel (hydroxypropylcellulose) (HPC)
[14] = dose: 200.0 mg/kg/injection, schedule: Q01DX009 (ip), vehicle: Klucel (hydroxypropylcellulose) (HPC)
[15] = dose: 400.0 mg/kg/injection, schedule: Q01DX009 (ip), vehicle: Klucel (hydroxypropylcellulose) (HPC)

Measured: T/C

CNC1(C(N)=O)CCCCC1
inactive: [1] 91 % of control | [2] 102 % of control | [3] 96 % of control | [4] 100 % of control | [5] 107 % of control | [6] 106 % of control | [7] 100 % of control | [8] 104 % of control | [9] 96 % of control

Cc1ccc(S(=O)(=O)N2CCCC(=O)c3ccccc32)cc1
inactive: dose: 100.0 mg/kg/injection, schedule: Q01DX001 (ip), vehicle: carboxymethylcellulose (CMC) 107 % of control | dose: 200.0 mg/kg/injection, schedule: Q01DX001 (ip), vehicle: carboxymethylcellulose (CMC) 100 % of control | dose: 400.0 mg/kg/injection, schedule: Q01DX001 (ip), vehicle: carboxymethylcellulose (CMC) 102 % of control

NC(=O)C1CC=CCC1C(=O)O (stereo not given)
inactive: dose: 100.0 mg/kg/injection, schedule: Q01DX009 (ip), vehicle: other 88 % of control | dose: 200.0 mg/kg/injection, schedule: Q01DX009 (ip), vehicle: other 100 % of control | dose: 400.0 mg/kg/injection, schedule: Q01DX009 (ip), vehicle: other 92 % of control

COc1ccc(C(=C2CCCCC2)c2ccc(OC)cc2)cc1
inactive: dose: 100.0 mg/kg/injection, schedule: Q01DX001 (ip), vehicle: saline with Tween-80 95 % of control | dose: 200.0 mg/kg/injection, schedule: Q01DX001 (ip), vehicle: saline with Tween-80 94 % of control | dose: 400.0 mg/kg/injection, schedule: Q01DX001 (ip), vehicle: saline with Tween-80 88 % of control

O=C(NCCc1ccccc1)Nc1ccccc1Cl
inactive: dose: 100.0 mg/kg/injection, schedule: Q01DX009 (ip), vehicle: gum acacia 96 % of control | dose: 100.0 mg/kg/injection, schedule: Q04DX003 (ip), vehicle: gum acacia 92 % of control | dose: 200.0 mg/kg/injection, schedule: Q01DX009 (ip), vehicle: gum acacia 115 % of control | dose: 200.0 mg/kg/injection, schedule: Q04DX003 (ip), vehicle: gum acacia 92 % of control | dose: 400.0 mg/kg/injection, schedule: Q01DX009 (ip), vehicle: gum acacia 100 % of control | dose: 400.0 mg/kg/injection, schedule: Q04DX003 (ip), vehicle: gum acacia 97 % of control

O=C(O)C(F)(F)C(F)(F)F.[Ag]
inactive: dose: 75.0 mg/kg/injection, schedule: Q01DX001 (ip), vehicle: acetone 87 % of control

Cc1c(C(C)(C)c2ccccc2)n(C)c2ccc(C(C)(C)c3ccccc3)cc12
inactive: dose: 50.0 mg/kg/injection, schedule: Q01DX001 (ip), vehicle: other 91 % of control | dose: 100.0 mg/kg/injection, schedule: Q01DX001 (ip), vehicle: other 91 % of control | dose: 200.0 mg/kg/injection, schedule: Q01DX001 (ip), vehicle: other 96 % of control | dose: 400.0 mg/kg/injection, schedule: Q01DX001 (ip), vehicle: other 93 % of control

CC1(C)CC(=O)c2c(cc3oc(=O)ccc3c2O)O1
inactive: [10] 102 % of control | [11] 105 % of control | [12] 98 % of control

C=CC1CC2C=CC1C2 (stereo not given)
inactive: [4] 100 % of control | [7] 103 % of control | [9] 106 % of control

CC(C)=NOC(=O)N(C)C
inactive: [2] 93 % of control | [5] 96 % of control | [8] 91 % of control

CC(=O)Nc1ccc(S(N)(=O)=O)cn1
inactive: [4] 102 % of control | [7] 89 % of control | [9] 86 % of control

Cc1nccnc1Sc1ccc2ccccc2c1
inactive: [13] 95 % of control | [14] 92 % of control | [15] 90 % of control

CSc1ccc2[nH]c3c(c2c1)CCNC3
inactive: dose: 100.0 mg/kg/injection, schedule: Q04DX003 (ip), vehicle: saline with Tween-80 108 % of control | dose: 200.0 mg/kg/injection, schedule: Q04DX003 (ip), vehicle: saline with Tween-80 105 % of control | dose: 400.0 mg/kg/injection, schedule: Q04DX003 (ip), vehicle: saline with Tween-80 98 % of control

C/C=C/C(=O)OC
inactive: [3] 101 % of control | [6] 102 % of control | dose: 400.0 mg/kg/injection, schedule: Q01DX009 (ip), vehicle: saline 104 % of control

O=C(O)CCSc1nc2ccccc2s1
inactive: dose: 75.0 mg/kg/injection, schedule: Q01DX009 (ip), vehicle: Klucel (hydroxypropylcellulose) (HPC) 101 % of control | dose: 150.0 mg/kg/injection, schedule: Q01DX009 (ip), vehicle: Klucel (hydroxypropylcellulose) (HPC) 88 % of control | dose: 300.0 mg/kg/injection, schedule: Q01DX009 (ip), vehicle: Klucel (hydroxypropylcellulose) (HPC) 95 % of control | [12] 94 % of control

Cc1cccc(C(N)=S)n1
inactive: [13] 97 % of control | [14] 93 % of control

NCCOCCOCCN
inactive: [1] 108 % of control | [3] 87 % of control

CCc1c(N)nc(=O)[nH]c1C(=O)O
inactive: dose: 100.0 mg/kg/injection, schedule: Q01DX001 (ip), vehicle: Klucel (hydroxypropylcellulose) (HPC) 115 % of control | [10] 96 % of control | dose: 200.0 mg/kg/injection, schedule: Q01DX001 (ip), vehicle: Klucel (hydroxypropylcellulose) (HPC) 118 % of control | [11] 100 % of control | dose: 400.0 mg/kg/injection, schedule: Q01DX001 (ip), vehicle: Klucel (hydroxypropylcellulose) (HPC) 117 % of control | [12] 104 % of control

O=C(Nc1ccccc1)OCC1CC2CCC1C2 (stereo not given)
inactive: [13] 96 % of control | [10] 95 % of control | [14] 94 % of control | [11] 93 % of control | [15] 96 % of control | [12] 93 % of control

O=C1c2ccccc2C(=O)N1CNc1ccc(Cc2ccc(NCN3C(=O)c4ccccc4C3=O)c(Cl)c2)cc1Cl
inactive: dose: 100.0 mg/kg/injection, schedule: Q01DX009 (ip), vehicle: saline with Tween-80 92 % of control | [4] 101 % of control | dose: 200.0 mg/kg/injection, schedule: Q01DX009 (ip), vehicle: saline with Tween-80 92 % of control | [7] 96 % of control | dose: 400.0 mg/kg/injection, schedule: Q01DX009 (ip), vehicle: saline with Tween-80 92 % of control | [9] 96 % of control

O=C(CCCCC(=O)Nc1cc(C(=O)Nc2ccc(C3=NCCN3)cc2)ccc1C(=O)Nc1ccc(C2=NCCN2)cc1)Nc1cc(C(=O)Nc2ccc(C3=NCCN3)cc2)ccc1C(=O)Nc1ccc(C2=NCCN2)cc1
inactive: dose: 1.25 mg/kg/injection, schedule: Q01DX Z (ip), vehicle: saline 90 % of control | dose: 2.5 mg/kg/injection, schedule: Q01DX Z (ip), vehicle: saline 95 % of control | dose: 5.0 mg/kg/injection, schedule: Q01DX Z (ip), vehicle: saline 88 % of control | dose: 10.0 mg/kg/injection, schedule: Q01DX Z (ip), vehicle: saline 101 % of control | dose: 15.0 mg/kg/injection, schedule: Q01DX Z (ip), vehicle: methylcellulose (MC) 103 % of control | dose: 30.0 mg/kg/injection, schedule: Q01DX Z (ip), vehicle: methylcellulose (MC) 110 % of control

C=C1C(=O)OC2C=C(C(O)CC(C)O)C(C)CCC12 (stereo not given)
inactive: dose: 50.0 mg/kg/injection, schedule: Q01DX001 (ip), vehicle: water 89 % of control | dose: 100.0 mg/kg/injection, schedule: Q01DX001 (ip), vehicle: water 95 % of control | dose: 200.0 mg/kg/injection, schedule: Q01DX001 (ip), vehicle: water 94 % of control
